# Assay results reported in patent publication US8030293B2, “Methods of optimizing drug therapeutic efficacy for treatment of immune-mediated gastrointestinal disorders” (Hopital-Sainte-Justine, priority 1998, dated 2011).
# Where two headings read alike, the source gives them in different places. Marks after values point to notes of the source that are not given here.
# Experiments:
# [1] = 6-MP metabolite levels by gender and age in pediatric IBD patients (Example III); type: in vivo, human; details: for 6-TG level / 6-MMP level: TPMT wild type
# Method: These patients were wild type for TPMT. Patients were assessed based on gender and age as it relates to puberty. Puberty is established at 12 years of age in girls and 14 years of age in boys.
# [2] = 6-TG levels by TPMT genotype in IBD patients (Example IV); type: in vivo, human; details: for mean 6-TG: in pmol/8×10^8 RBC
# Method: The genotype of TPMT was determined in IBD patients that were responders and non responders. Genotyping of TPMT was measured essentially as described previously (Baccichet et al., Leuk. Res. 21:817-823 (1997); Zietkiewicz et al., Gene 205:161-171 (1997)). […] All heterozygote patients were responders to 6-MP.
# [3] = erythrocytes
# From the text: The 93 patients were pediatric patients, with 80 diagnosed as having CD, 8 diagnosed as having UC, and 5 diagnosed as having indeterminate colitis (CD or UC). All but 7 patients were given AZA. The dosages were converted to 6-MP equivalents using a factor of 2.07 as described in Example I. For some patients, two or more samples were obtained and analyzed. Response to 6-MP was defined by clinical remission (HBI<5, closed fistula) without corticosteroids. Disease activity and physical exam were ascertained at each clinic visit at which 6-MP metabolite levels were determined (clinical evaluation point). Hematological, pancreatic and hepatic laboratory parameters were evaluated simultaneously Erythrocyte 6-TG and 6-MMP concentrations (pmol/8×10^8 RBC) were measured by HPLC (Cuffari et al., supra, 1996a).
# The number of samples corresponds to the number of different samples obtained from the 93 patients.
# [4] = Erythrocyte 6-MP metabolite levels by reverse phase HPLC in IBD patients on 6-MP drug (Example I); details: erythrocytes
# Method: Briefly, blood was sampled (n=89) prior to daily administration of 6-MP in 55 IBD patients (CD n=51, UC n=4) receiving 1-1.5 mg/kg/day over at least a 4 month period (≧4 mo.). When AZA was administered, a conversion factor of 2.07 was used to convert to the equivalent 6-MP dose. Twice as much AZA is administered relative to 6-MP to have an equivalent dose of 6-MP.
# Erythrocyte 6-TG, 6-MMP and 6-MP thiobases were measured (pmol/8×10^8 RBC) using reverse phase HPLC. Briefly, blood samples were collected in EDTA (ethylene diamine tetraacetic acid) as anticoagulant. Cells were centrifuged and washed three times with an equal volume of 0.9% saline. Washed packed cells were stored at −70° C. until analysis was performed.
# For acid hydrolysis, 500 μl deionized H2O, 50 μl thawed red blood cells, 40 μl of the appropriate standard or control, 500 μl 3.0 NH2SO4, and 300 μl 10 mM dithiothreitol (DTT) was added to an 8 ml glass screw cap tube. The capped tubes were placed in a heating block preheated to 100° C. and hydrolyzed. For 6-MMP, hydrolysis was carried out for 5 hours. For 6-MP and 6-TG, hydrolysis was carried out for 1 hour. After the incubation, tubes were cooled in a room temperature water bath. To tubes hydrolyzed for 5 hours (6-MMP), 400 μl 3.4 N NaOH and 1.0 ml 2 M Tris buffer, pH 9.0 was added. To tubes hydrolyzed for 1 hour (6-MP/6-TG), 450 μl 3.4 N NaOH and 500 μl 2M Tris base was added. A volume of 4 ml 0.03% phenylmercuric chloride in methylene chloride was added to each tube. The tubes were capped and lightly agitated on a bi-directional rotator (15 min for 6-MMP and 30 min for 6-MP/6-TG). The contents were transferred to a 15 ml polypropylene centrifuge tube and centrifuged at 3500 rpm for 3 min at 10° C. The aqueous phase (top layer) was discarded, and 3.0 ml of the organic phase (bottom layer) was transferred to a clean 15 ml polypropylene centrifuge tube. The analytes in the organic phase were back extracted by adding 225 μl 0.1 N HCl and lightly mixing on an orbital rotator for 5 min. Following vortexing for 30 seconds, the tubes were centrifuged at 3500 rpm for 3 min at 10° C.
# For 6-MMP analysis, 50 μl analyte was analyzed on a C18 reverse phase column with the mobile phase containing 1 mM DTT, 2.078% triethylamine and 4% methanol, adjusted to pH 3.2 with concentrated H3PO4. For 6-MP and 6-TG analysis, 100 μl analyte was analyzed on a C18 reverse phase column using 0.1 M H3PO4 and 1 mM DTT in H2O as the mobile phase.
# Clinical remission was defined as a Harvey Bradshaw Index <5 in those patients off corticosteroids or weaned to a level of prednisone ≦0.4 mg/kg/od (administered every other day). Treatment failures were defined as non-responders (HBI>5 or steroid dependence) or cessation of 6-MP due to side effects.
# [5] = human, in vivo
# Method: All but 7 patients were given AZA.
# Toxicity was measured essentially as described previously (Cuffari et al., supra; 1996a).
# [6] = Responsiveness to 6-MP drug therapy by TPMT genotype in IBD patients (Example IV); type: in vivo, human
# Method: The genotype of TPMT was determined in IBD patients that were responders and non responders. Genotyping of TPMT was measured essentially as described previously (Baccichet et al., Leuk. Res. 21:817-823 (1997); Zietkiewicz et al., Gene 205:161-171 (1997)).
compound,measurement,setting,value
"Nc1nc2nc[nH]c2c(=S)[nH]1 [6-TG, 6-thioguanine]",6-TG level,"[1]; Boys (0-14 y), 51 observed",235.0 pmol per 8 × 10^8 RBC
same,6-TG level,"[1]; Boys (>14 y), 104 observed",222.5 pmol per 8 × 10^8 RBC
same,6-TG level,"[1]; Girls (0-12 y), 39 observed",182.2 pmol per 8 × 10^8 RBC
same,6-TG level,"[1]; Girls (>12 y), 116 observed",217.2 pmol per 8 × 10^8 RBC
same,mean 6-TG,"[2]; TPMT Heterozygote patients, p less than 0.0001",589*
same,mean 6-TG,[2]; TPMT Normal patients,247
same,6-TG levels of TPMT heterozygotes,[2]; all 8 heterozygotes,> 230 pmol/8×10^8 RBC
same,median 6-TG,"[3]; Relapse, n=72 samples",197 pmol/8×10^8 RBC
same,median 6-TG,"[3]; Remission, n=106 samples, p<0.0001",309* pmol/8×10^8 RBC
same,median 6-TG,"[4]; Hematologic toxicity group, n=6, p<0.03",414+ pmol per 8×10^8 RBC
same,median 6-TG,"[4]; Hepatic toxicity group, n=7",258 pmol per 8×10^8 RBC
same,median 6-TG,"[4]; Non-responders, n=31, p<0.001",184* pmol per 8×10^8 RBC
same,median 6-TG,"[4]; Pancreatic toxicity group, n=6",211 pmol per 8×10^8 RBC
same,median 6-TG,"[4]; Responders, n=58 samples, 6-MP 1-1.5 mg/kg/day ≥4 mo.",295 pmol per 8×10^8 RBC
"CSc1ncnc2nc[nH]c12 [6-MMP, 6-methyl-mercaptopurine]",6-MMP level associated with hepatotoxicity,[5],greater than 7000 pmol 6-MMP/8×10^8
same,Ratio 6-MMP/6-TG,[1]; Boys (0-14 y),17.24
same,6-MMP level,"[1]; Boys (0-14 y), 51 observed",3681.6 pmol per 8 × 10^8 RBC
same,6-MMP level,"[1]; Boys (>14 y), 104 observed, p<0.001",1662.3* pmol per 8 × 10^8 RBC
same,Ratio 6-MMP/6-TG,"[1]; Boys (>14 y), p<0.001",6.78*
same,Ratio 6-MMP/6-TG,[1]; Girls (0-12 y),18.52
same,6-MMP level,"[1]; Girls (0-12 y), 39 observed",3447.0 pmol per 8 × 10^8 RBC
same,Ratio 6-MMP/6-TG,[1]; Girls (>12 y),12.55
same,6-MMP level,"[1]; Girls (>12 y), 116 observed",3304.5 pmol per 8 × 10^8 RBC
same,Median 6-MMP,"[3]; Relapse, n=72 samples",1602 pmol/8×10^8 RBC
same,Median 6-MMP,"[3]; Remission, n=106 samples",2600 pmol/8×10^8 RBC
"Sc1ncnc2nc[nH]c12 [6-MP, 6-Mercaptopurine]",response of TPMT heterozygotes to 6-MP,[6]; 8 of 93 patients heterozygotes,All 8 heterozygotes responded
same,Non. responder,[6]; TPMT Heterozygote IBD patients,0%
same,Responder,[6]; TPMT Heterozygote IBD patients,100%
same,Non. responder,[6]; TPMT Normal IBD patients,45%
same,Responder,[6]; TPMT Normal IBD patients,55%
